What was measured:
[1] = Heparin Affinity Chromatography (HAC); format: binding; conditions: Table 4; heparin affinity column, gradient 0 to 1 M NaCl in pH 7.2, 50 mM sodium phosphate over 60 min, 0.65 mL/min
Procedure: The relative affinities of the peptoids in Table 2 for heparin were determined by heparin affinity chromatography (“HAC”). Peptoid solutions, typically 0.2 mM, were eluted by gradient elution; mobile phase A consisted of pH 7.2, 50 mM sodium phosphate buffer and mobile phase B consisted of the same buffer but with 1 M NaCl added. The flow rate was 0.65 mL/min and the gradient began with 100% mobile phase A and 0% mobile phase B, and ended at 60 min with 0% mobile phase A and 100% B although most of the peptoid runs were complete within 30 min or less.

[2] = Isothermal Titration Calorimetry (ITC) of peptoid-heparin binding; conditions: for ΔS: calculated from ΔG and ΔH; for ΔG: calculated from ΔG=−RTlnKb; for TΔS: calculated from binding constant and ΔH
Procedure: For Table 3, binding constants and other thermodynamic parameters were determined for the chiral 12-mer analogs by ITC. The S12mer data represents 3 trials, and the R12mer represents 2 trials. Values for the parameters Kb, AH and N are obtained by fitting the titration curves. AG is calculated from ΔG=−RTlnKb and ΔS is calculated from […].
Isothermal Titration Calorimetry (“ITC”) was used to determine directly ΔH, the binding constant and stoichiometry, and ΔS was then calculated from the binding constant and ΔH for the binding reaction between heparin and the peptoids produced in this study. In a typical ITC experiment, peptoid in buffer solution was placed in the sample cell and an equivalent quantity of the same buffer solution was placed in the reference cell. Heparin in buffer solution was placed in the titration syringe. Heparin titrant was added to the sample cell in 10 μL aliquots with 210 sec. between aliquots.
FIG. 11 presents the isotherm for the endothermic reaction. The resulting integrated titration curve is given in FIG. 12 for a reaction between 0.20 mM peptoid in the sample cell and 0.25 mM heparin in the titration syringe.

[3] = test system: proteases; conditions: physiological conditions; cited from earlier work
[4] = Coatest heparin in vitro assay; cited from earlier work
[5] = Table 3, ITC, S12mer 3 trials, R12mer 2 trials
[6] = Table 4, ITC, heparin titrated into peptoid in buffer

| ΔH ([2]; Table 4, ITC) [kcal/mol] | Kd [2, 6] [µM] | TΔS ([2]; Table 4, ITC) | Substance | HAC r.t. [1] [min] | also measured |
| --- | --- | --- | --- | --- | --- |
| 1.278 ± 0.379 | 7.6 ± 4.2 | 5664 ± 2.5 cal/mol | H-[N(Orn)-N(Bu)-N(Rpe)]4-NH2 [r12mer] | 18.5 ± 0.6 | Kd [2, 5]: 7.57 µM; ΔH [2, 5]: 1.278 kcal/mol; ΔS ([2]; Table 3, ITC): 19.01 cal/mole ° C.; ΔG ([2]; Table 3, ITC): -6.956 kcal/mol |
| -1.634 ± 0.043 | 5.6 ± 1.8 | 4639 ± 36 cal/mol | H-[N(Arg)-N(Pr)-N(Spe)]3-NH2 [s9merPrG] | 20.3 ± 0.6 | – |
| -2.862 ± 0.222 | 20.6 ± 0.8 | 2316 ± 32 cal/mol | H-[N(Arg)-N(Bu)-N(Spe)]2-NH2 [s6merG] | 13.5 ± 2.9 | – |
| 3.555 ± 0.056 | 11.2 ± 0.7 | 1427 ± 2.6 cal/mol | H-[N(Orn)-N(Pr)-N(Spe)]3-NH2 [s9merPr] | 16.5 ± 0.7 | – |
| -0.6325 ± 0.0085 | 140 ± 11 | 2026.4 ± 159 cal/mol | H-[N(Arg)-N(Bu)-N(Spe)]-NH2 [s3merG] | 3.8 ± 0.3 | – |
| 0.814 ± 0.089 | 18.6 ± 3.2 | 7259 ± 45 cal/mol | H-[N(Orn)-N(Bu)-N(Spe)]3-NH2 [s9mer] | 14.1 ± 1.2 | – |
| 1.733 ± 0.047 | 4.11 ± 0.6 | 9097 ± 30 cal/mol | H-[N(Orn)-N(Bu)-N(Spe)]4-NH2 [s12mer] | 21.6 ± 0.6 | relative binding affinity to heparin ([2]; ITC and HAC results, comparison in words): greater binding affinity; Kd [2, 5]: 4.11 µM; ΔH [2, 5]: 1.733 kcal/mol; ΔS ([2]; Table 3, ITC): 30.53 cal/mole ° C.; ΔG ([2]; Table 3, ITC): -6.309 kcal/mol |
| 0.3867 ± 0.237 | 164 ± 32 | 5057 ± 35 cal/mol | H-[N(Orn)-N(Bu)-N(Spe)]-NH2 [s3mer] | 3.0 ± 0.6 | – |
| -0.931 ± 0.074 | 8.3 ± 3.2 | 4627 ± 41 cal/mol | H-[N(Orn)-N(All)-N(Spe)]3-NH2 [s9merAll] | 20 ± 2.0 | – |
| -0.6151 ± 0.135 | 5 ± 0.3 | 3948 ± 56 cal/mol | H-[N(Lys)G-N(Bu)-N(Spe)]3-N2 [s9merLysG] | 20.6 ± 0.2 | – |
| 0.8223 ± 0.034 | 10.9 ± 0.7 | 5140 ± 37 cal/mol | H-[N(Orn)-N(Et)-N(Spe)]3-NH2 [s9merEt] | 16.5 ± 0.5 | – |
| – | – | – | Ac-SRGKAKVKAKVKDQTK-NH2 [D-HIPAP] | – | stability to proteases [3]: more stable than L-HIPAP |
| – | – | – | Ac-SRGKAKVKAKVKDQTK-NH2 (not fully specified; printed as Ac-SRGKAKVKAKVKDQTK-NH2) [L-HIPAP] | – | neutralizing heparin activity [4]: equally effective |
| 0.565 ± 0.064 | 44 ± 5 | 7748 ± 880 cal/mol | H-[N(Orn)-N(Bu)-N(Spe)]2-NH2 [s6mer] | 9.61 ± 1.1 | – |
| -5.253 ± 0.105 | 0.14 ± 0.004 | 3992 ± 383 cal/mol | H-[N(Orn)-N(Orn)-N(Spe)]4-NH2 [s9merOrnOrn] | 38.5 ± 5.0 | enthalpy of reaction (sign) ([2]; ITC with heparin): exothermic |
| – | – | – | Ac-SRGKAKVKAKVKDQTK-NH2 [L-HIPAP] | – | stability to proteases [3]: more susceptible to degradation by proteases |
| -2.176 ± 0.082 | 4.3 ± 2.2 | 3159 ± 115 cal/mol | H-[N(Arg)-N(Et)-N(Spe)]3-NH2 [s9merEtG] | 21.5 ± 0.5 | – |
| 3.305 ± 0.064 | 16.4 ± 11 | 10,000 ± 54 cal/mole | H-[N(Lys)-N(Bu)-N(Spe)]3-NH2 [s9merLys] | 14.6 ± 0.2 | – |
| -0.2835 ± 0.027 | 5.5 ± 3.4 | 7500 ± 32 cal/mol | H-[N(Cad)G-N(Bu)-N(Spe)]3-NH2 [s9merCadG] | 20.1 ± 0.5 | – |
| -0.545 ± 0.121 | 0.9 ± 0.4 | 2851 ± 1.4 cal/mol | H-[N(Orn)-N(Bz)-N(Spe)]3-NH2 [s9merBz] | 29.3 ± 0.5 | – |
| 2.381 ± 0.029 | 11.7 ± 0.1 | 8989 ± 15 cal/mol | H-[N(Cad)-N(Bu)-N(Spe)]3-NH2 [s9merCad] | 16.3 ± 0.6 | – |
| -0.167 ± 0.038 | 3.4 ± 0.4 | 7682 ± 43 cal/mol | H-[N(Orn)-N(Bu)-N(Spe)]4-NH2 [s12merG] | 29.2 ± 1.0 | – |
| 1.654 ± 0.011 | 8.3 ± 2 | 3161 ± 76 cal/mol | H-[N(Orn)-N(Me)-N(Spe)]3-NH2 [s9merMe] | 18.1 ± 0.5 | – |
| -1.197 ± 0.071 | 4.76 ± 2.3 | 16.6 ± 1.7 cal/mol | H-[N(Arg)-N(Bu)-N(Spe)]3-NH2 [s9merG] | 20.8 ± 0.8 | – |

From patent US20140256638A1, “PEPTOID NEUTRALIZING AGENTS” (The Regents of the University of California, priority 2013, published 2014)
